Assays:
[1] = stability in Caco-2 intestinal epithelial cell extracts (LC-MS); format: in vitro ADME; details: Caco-2 cell extracts
Protocol: Peptides administered in vivo are susceptible to protease cleavage, particularly those administered to the intestine. PIK, D-PIK, D-PIK(reversed) and D-PIK(int.) were each incubated with rat intestinal fluid and also with Caco-2 intestinal epithelial cell extracts, which contain a mixture brush border and cytosolic proteases. Luminal intestinal secretions were obtained by flushing isolated rat intestines (duodenum to ileum) with 10 ml of 20 mM of N-2-Hydroxyethylpiperazine-N′-2-ethanesulfonic acid (HEPES) buffer, pH 7.4. Discharged contents were centrifuged to remove solids and the supernatant filtered through a 0.20 μm filter prior to determining total protein content. Confluent Caco-2 cells were rinsed with PBS, lifted by brief trypsin treatment into a small volume of Dulbecco's modified Eagles's medium (DMEM) and washed twice with phosphate buffered saline (PBS). […] Protein concentrations of isolated intestinal fluid and lysed Caco-2 cell extracts were determined using the Bio-Rad Protein Assay. […] Samples were centrifuged and supernatants analyzed by LC-MS analysis to determine the cleavage pattern of PIK.
(§1) Residual peptide content was assessed by liquid chromatography-mass spectrometry (Tiller et al., Anal Bioanal Chem 2003; 377:788-802) and positive ion electrospray ionization.

[2] = stability in rat intestinal fluid (LC-MS); format: in vitro ADME
Protocol: Peptides administered in vivo are susceptible to protease cleavage, particularly those administered to the intestine. PIK, D-PIK, D-PIK(reversed) and D-PIK(int.) were each incubated with rat intestinal fluid and also with Caco-2 intestinal epithelial cell extracts, which contain a mixture brush border and cytosolic proteases. Luminal intestinal secretions were obtained by flushing isolated rat intestines (duodenum to ileum) with 10 ml of 20 mM of N-2-Hydroxyethylpiperazine-N′-2-ethanesulfonic acid (HEPES) buffer, pH 7.4. Discharged contents were centrifuged to remove solids and the supernatant filtered through a 0.20 μm filter prior to determining total protein content. Confluent Caco-2 cells were rinsed with PBS, lifted by brief trypsin treatment into a small volume of Dulbecco's modified Eagles's medium (DMEM) and washed twice with phosphate buffered saline (PBS). The final cell pellet was re-suspended in a small volume of lysis buffer (50 mM Tris-HCL, 2 mM EDTA, 20% glycerol at pH 7.4) and sonicated on ice. Protein concentrations of isolated intestinal fluid and lysed Caco-2 cell extracts were determined using the Bio-Rad Protein Assay. Peptide inhibitors of MLCK (1 mg/ml) in PBS were mixed with 0.1 mg protein of intestinal secretions or Caco-2 cell lysate on ice and incubated for at 4° C. and 37° C., respectively. At selected times, 100 μl aliquots were withdrawn and mixed with an equal volume of 0.5% TFA (in 50/50 water/acetonitrile) to terminate enzymatic reactions. Samples were centrifuged and supernatants analyzed by LC-MS analysis to determine the cleavage pattern of PIK.
as §1
The peptides listed in Table 2 (0.1 mg) were incubated with rat intestinal fluid (0.2 mg) at 37° C. for 0.5 min to 6 hours.

With “Ac-RKKYKYRRK-NH2 [PIK, Arg-Lys-Lys-Tyr-Lys-Tyr-Arg-Arg-Lys]” the cleavage pattern [1] was “cleaved PIK across the central palindromic sequence”, the half-life ([2]; 0.1 mg peptide, rat intestinal fluid (0.2 mg), 37° C.) was 12 s and the initial cleavage pattern ([2]; rat intestinal fluid) was “peptide bonds at the C-terminal sides of K and R residues of PIK were initially cleaved”. For the same substance, the “hydrolysis on extended incubation” value ([2]; rat intestinal fluid, extended incubations) was “total hydrolysis”.

Source: patent US20100016242A1, “MYOSIN LIGHT CHAIN KINASE INHIBITORS AND METHODS OF USE” (THE UNIVERSITY OF CHICAGO, priority 2004, published 2010)
